Assay results from patent US9227971B2, “Pyrazolo[1,5-a]pyrimidine compounds as mTOR inhibitors” (Merck Sharp & Dohme Corp., priority 2010, dated 2016).
Where two headings read alike, the source gives them in different places.

Tests used:
[1] = tested on: phosphorylated AKT Ser473 (pAKT S473), mTORC2 activity, PC3 cells; assay: mTOR target engagement assay, immunofluorescent cell-based, pAKT S473 readout (mTORC2 activity)
Summary of the method: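 After blocking, cells were stained overnight at 4 °C with anti-pAKT S473 antibody, then a fluorescent secondary; inhibition was read as reduced fluorescence intensity.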

[2] = tested on: phosphorylated 4E-BP1 Thr37/46 (p4E-BP1 Thr37/46), mTORC1 activity, PC3 cells; assay: mTOR target engagement assay, immunofluorescent cell-based, p4E-BP1 Thr37/46 readout (mTORC1 activity); settings: read-out: p4E-BP1 Thr37/46 IC50
Summary of the method: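 PTEN-mutant PC3 prostate cells were treated with serially diluted compound in 5% FBS F12 medium (0.25% DMSO) for ninety minutes at 37° C, glyoxal-fixed, then immunostained overnight at 4° C for p4E-BP1 Thr37/46 with an Alexa Fluor 488 secondary. IC50 came from four-parameter fits of fluorescence, DMSO-only wells defining 100%.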

[3] = Homo sapiens, PC-3, PC3 cells, compound treatment ninety minutes at 37° C.
[4] = Homo sapiens, PC-3, Table 3-1, PC3 cells
[5] = Homo sapiens, PC-3, Table 7-8, PC3 cells

| SMILES | IC50 [1, 3] [nM] | IC50 [2, 3] [nM] | further results |
| --- | --- | --- | --- |
| CC(=O)c1c(C2CC3CCC(C2)N3C(=O)c2nnc(C)[nH]2)nc2c(-c3ccc(-c4ccccc4)nc3)cnn2c1N [Compound 1.1.22, 1-(7-amino-5-((1R,3s,5S)-8-(3-methyl-1H-1,2,4-triazole-5-carbonyl)-8-azabicyclo[3.2.1]octan-3-yl)-3-(6-phenylpyridin-3-yl)pyrazolo[1,5-a]pyrimidin-6-yl)ethanone] | 1 to 100 | 1 to 100 | – |
| COc1c(F)cc(-c2ccc(-c3cnn4c(N)c(C(C)=O)c([C@@H]5C[C@H]6CC[C@@H](C5)N6C(=O)c5nnc[nH]5)nc34)cn2)cc1F [Compound 1.1.64, 1-(5-((1R,3s,5S)-8-(4H-1,2,4-triazole-3-carbonyl)-8-azabicyclo[3.2.1]octan-3-yl)-7-amino-3-(6-(3,5-difluoro-4-methoxyphenyl)pyridin-3-yl)pyrazolo[1,5-a]pyrimidin-6-yl)ethanone] | 100 to 1000 | 100 to 1000 | – |
| CC(=O)c1c([C@@H]2C[C@H]3CC[C@@H](C2)N3C(=O)c2nnc[nH]2)nc2c(-c3cnc(C(C)(C)O)c(Cl)c3)cnn2c1N [Compound 1.1.181, 1-(5-((1R,3s,5S)-8-(4H-1,2,4-triazole-3-carbonyl)-8-azabicyclo[3.2.1]octan-3-yl)-7-amino-3-(5-chloro-6-(2-hydroxypropan-2-yl)pyridin-3-yl)pyrazolo[1,5-a]pyrimidin-6-yl)ethanone] | 1 to 100 | 1 to 100 | – |
| C[C@H](O)C(=O)N1[C@@H]2CC[C@H]1C[C@H](c1nc3c(-c4ccc(-c5ccccc5)nc4)cnn3c(N)c1S(C)(=O)=O)C2 [Compound 3.27] | – | – | IC50 [1, 4]: 100 to 1000 nM; IC50 [2, 4]: 100 to 1000 nM |
| CCNC(=O)N1[C@@H]2CC[C@H]1C[C@H](c1nc3c(-c4ccc(-c5ccccc5)nc4)cnn3c(N)c1C1CC1)C2 [Compound 4.5, (1R,3s,5S)-3-(7-amino-6-cyclopropyl-3-(6-phenylpyridin-3-yl)pyrazolo[1,5-a]pyrimidin-5-yl)-N-ethyl-8-azabicyclo[3.2.1]octane-8-carboxamide] | 100 to 1000 | 100 to 1000 | – |
| CS(=O)(=O)c1c([C@@H]2C[C@H]3CC[C@@H](C2)N3C(=O)c2nnc[nH]2)nc2c(-c3ccc(-c4ccc(F)c(F)c4)nc3)cnn2c1N [Compound 3.44, ((1R,3s,5S)-3-(7-amino-3-(6-(3,4-difluorophenyl)pyridin-3-yl)-6-(methylsulfonyl)pyrazolo[1,5-a]pyrimidin-5-yl)-8-azabicyclo[3.2.1]octan-8-yl)(4H-1,2,4-triazol-3-yl)methanone] | – | – | IC50 [1, 4]: 1 to 100 nM; IC50 [2, 4]: 1 to 100 nM |
| CCOc1ccc(-c2ccc(-c3cnn4c(N)c(S(C)(=O)=O)c([C@@H]5C[C@H]6CC[C@@H](C5)N6C(=O)c5nnc[nH]5)nc34)cn2)cc1 [Compound 3.60, ((1R,3s,5S)-3-(7-amino-3-(6-(4-ethoxyphenyl)pyridin-3-yl)-6-(methylsulfonyl)pyrazolo[1,5-a]pyrimidin-5-yl)-8-azabicyclo[3.2.1]octan-8-yl)(4H-1,2,4-triazol-3-yl)methanone] | – | – | IC50 [1, 4]: 1 to 100 nM; IC50 [2, 4]: 1 to 100 nM |
| CS(=O)(=O)c1c([C@@H]2C[C@H]3CC[C@@H](C2)N3c2nnc[nH]2)nc2c(-c3ccc(-c4ccccc4)nc3)cnn2c1N [Compound 3.21, 5-((1R,3s,5S)-8-(4H-1,2,4-triazol-3-yl)-8-azabicyclo[3.2.1]octan-3-yl)-6-(methylsulfonyl)-3-(6-phenylpyridin-3-yl)pyrazolo[1,5-a]pyrimidin-7-amine] | – | – | IC50 ([1]; Table 3-1, PC3 cells): 1000 to 10000 nM; IC50 ([2]; Table 3-1, PC3 cells): 1000 to 10000 nM |
| CS(=O)(=O)c1c([C@@H]2C[C@H]3CC[C@@H](C2)N3c2nccc(N)n2)nc2c(-c3ccc(-c4ccccc4)nc3)cnn2c1N [Compound 8.63, 5-((1R,3s,5S)-8-(4-aminopyrimidin-2-yl)-8-azabicyclo[3.2.1]octan-3-yl)-6-(methylsulfonyl)-3-(6-phenylpyridin-3-yl)pyrazolo[1,5-a]pyrimidin-7-amine] | – | – | IC50 ([1]; Homo sapiens, PC-3, PC3 cells): 1000 to 10000 nM; IC50 ([2]; Homo sapiens, PC-3, PC3 cells): 1000 to 10000 nM |
| CC(C)(O)c1ncc(-c2cnn3c(N)c(S(C)(=O)=O)c([C@@H]4C[C@H]5CC[C@@H](C4)N5C(=O)c4nnc[nH]4)nc23)cn1 [Compound 3.152, ((1R,3s,5S)-3-(7-amino-3-(2-(2-hydroxypropan-2-yl)pyimidin-5-yl)-6-(methylsulfonyl)pyrazolo[1,5-a]pyrimidin-5-yl)-8-azabicyclo[3.2.1]octan-8-yl)(4H-1,2,4-triazol-3-yl)methanone] | – | – | IC50 [1, 4]: 1000 to 10000 nM; IC50 [2, 4]: 1000 to 10000 nM |
| Nc1c(C2CC2)c([C@@H]2C[C@H]3CC[C@@H](C2)N3C(=O)c2nnc[nH]2)nc2c(-c3cnn(-c4ccccc4)c3)cnn12 [Compound 4.26, ((1R,3s,5S)-3-(7-amino-6-cyclopropyl-3-(1-phenyl-1H-pyrazol-4-yl)pyrazolo[1,5-a]pyrimidin-5-yl)-8-azabicyclo[3.2.1]octan-8-yl)(4H-1,2,4-triazol-3-yl)methanone] | 1 to 100 | 100 to 1000 | – |
| CC(=O)c1c([C@]2(O)C[C@H]3CC[C@@H](C2)N3C(=O)c2nnc[nH]2)nc2c(-c3ccc(-c4ccccc4)nc3)cnn2c1N [Compound 8.21, 1-(7-amino-5-((1R,3r,5S)-3-hydroxy-8-(4H-1,2,4-triazole-3-carbonyl)-8-azabicyclo[3.2.1]octan-3-yl)-3-(6-phenylpyridin-3-yl)pyrazolo[1,5-a]pyrimidin-6-yl)ethanone] | – | – | IC50 ([1]; Homo sapiens, PC-3, PC3 cells): 1000 to 10000 nM; IC50 ([2]; Homo sapiens, PC-3, PC3 cells): 1000 to 10000 nM |
| Nc1c(C2CC2)c([C@@H]2C[C@H]3CC[C@@H](C2)N3C(=O)c2nnc[nH]2)nc2c(-c3ccc(C(N)(C(F)(F)F)C(F)(F)F)nc3)cnn12 [Compound 7.85, ((1R,3s,5S)-3-(7-amino-3-(6-(2-amino-1,1,1,3,3,3-hexafluoropropan-2-yl)pyridin-3-yl)-6-cyclopropylpyrazolo [1,5-a]pyrimidin-5-yl)-8-azabicyclo[3.2.1]octan-8-yl)(4H-1,2,4-triazol-3-yl)methanone] | – | – | IC50 ([1]; Homo sapiens, PC-3, PC3 cells): 1000 to 10000 nM; IC50 ([2]; Homo sapiens, PC-3, PC3 cells): 1000 to 10000 nM |
| CC(=O)c1c([C@@H]2C[C@H]3CC[C@@H](C2)N3C(=O)c2nnc[nH]2)nc2c(-c3ccc(-c4ncn(C)n4)nc3)cnn2c1N [Compound 1.1.88, 1-(5-((1R,3s,5S)-8-(4H-1,2,4-triazole-3-carbonyl)-8-azabicyclo[3.2.1]octan-3-yl)-7-amino-3-(6-(1-methyl-1H-1,2,4-triazol-3-yl)pyridin-3-yl)pyrazolo[1,5-a]pyrimidin-6-yl)ethanone] | 1 to 100 | 1 to 100 | – |
| CC(=O)c1c([C@@H]2C[C@H]3CC[C@@H](C2)N3C(=O)CO)nc2c(-c3ccc(-c4ccc(F)cc4F)nc3)cnn2c1N [Compound 1.1.164, 1-((1R,3s,5S)-3-(6-acetyl-7-amino-3-(6-(2,4-difluorophenyl)pyridin-3-yl)pyrazolo[1,5-a]pyrimidin-5-yl)-8-azabicyclo[3.2.1]octan-8-yl)-2-hydroxyethanone] | 1 to 100 | 100 to 1000 | – |
| Nc1c(Br)c([C@@H]2C[C@H]3CC[C@@H](C2)N3C(=O)c2nnc[nH]2)nc2c(-c3ccc(C4(O)CCC4)nc3)cnn12 [Compound 7.42, ((1R,3s,5S)-3-(7-amino-6-bromo-3-(6-(1-hydroxycyclobutyl)pyridin-3-yl)pyrazolo[1,5-a]pyrimidin-5-yl)-8-azabicyclo[3.2.1]octan-8-yl)(4H-1,2,4-triazol-3-yl)methanone] | – | – | IC50 [1, 5]: 1000 to 10000 nM; IC50 [2, 5]: 100 to 1000 nM |
| CNC(=O)N1[C@@H]2CC[C@H]1C[C@H](c1nc3c(-c4ccc(-c5ccccc5)nc4)cnn3c(N)c1C(C)=O)C2 [Compound 1.1.39, (1R,3s,5S)-3-(6-acetyl-7-amino-3-(6-phenylpyridin-3-yl)pyrazolo[1,5-a]pyrimidin-5-yl)-N-methyl-8-azabicyclo[3.2.1]octane-8-carboxamide] | 1 to 100 | 1 to 100 | – |
| CC(=O)c1c([C@@H]2C[C@H]3CC[C@@H](C2)N3C(=O)c2nnc(C)[nH]2)nc2c(-c3ccc(-c4ccccc4F)nc3)cnn2c1N [Compound 1.1.173, 1-(7-amino-3-(6-(2-fluorophenyl)pyridin-3-yl)-5-((1R,3s,5S)-8-(5-methyl-4H-1,2,4-triazole-3-carbonyl)-8-azabicyclo[3.2.1]octan-3-yl)pyrazolo[1,5-a]pyrimidin-6-yl)ethanone] | 1 to 100 | 1 to 100 | – |
| CC(=O)c1c([C@@H]2C[C@H]3CC[C@@H](C2)N3C(=O)c2ccn[nH]2)nc2c(-c3ccc(-c4ccc(F)cc4F)nc3)cnn2c1N [Compound 1.1.167, 1-(5-((1R,3s,5S)-8-(1H-pyrazole-5-carbonyl)-8-azabicyclo[3.2.1]octan-3-yl)-7-amino-3-(6-(2,4-difluorophenyl)pyridin-3-yl)pyrazolo[1,5-a]pyrimidin-6-yl)ethanone] | 1 to 100 | 100 to 1000 | – |
| CC(=O)c1c([C@@H]2C[C@H]3CC(O)[C@@H](C2)N3C(=O)CO)nc2c(-c3ccc(-c4ccccc4)nc3)cnn2c1N (stereo partly drawn) [Compound 8.35, 1-((1S,3R,5R)-3-(6-acetyl-7-amino-3-(6-phenylpyridin-3-yl)pyrazolo[1,5-a]pyrimidin-5-yl)-6-hydroxy-8-azabicyclo[3.2.1]octan-8-yl)-2-hydroxyethanone] | – | – | IC50 ([1]; Homo sapiens, PC-3, PC3 cells): 1 to 100 nM; IC50 ([2]; Homo sapiens, PC-3, PC3 cells): 1 to 100 nM |
